In patent US6020363A, “Isocoumarin derivatives and use thereof in drugs” (Mercian Corporation, priority 1998, dated 2000):

Tests used:
Acute toxicity in mice = type: in vivo, DBA/1J mice; conditions: 100 mg/kg
Experimental: Among the compounds in accordance with the present invention, each of Compounds 1, 2 and 3 was orally or intraperitoneally administered to eight DBA/1J mice in a dose of 100 mg/kg body weight. […] This seems to indicate that the compounds used in the present invention have no or very little, if any, acute toxicity. Moreover, Compound 1, in a dose of 100 mg/kg body weight, or Compound 3, in a dose of 30 mg/kg body weight, was orally administered to eight mice of the aforesaid strain for 40 days. […] Thus, the compounds of the present invention have little subacute toxicity. Since other compounds in accordance with the present invention are estimated to have similar properties, the compounds of the present invention can be used very safely.

[1] = system: collagen-induced arthritis; experiment: Inhibitory Effect on Collagen-Induced Arthritis (No. 2), arthritis score; type: in vivo, DBA/1J mice; conditions: oral, mean ± SE, maximum 16
Experimental: The preventive effect on the onset of collagen-induced arthritis was tested by using DBA/1J mice in groups of 5-8. Specifically, type II collagen was mixed with an equal volume of Freund's complete adjuvant and emulsified to prepare a 1 mg/ml emulsion. Mice were sensitized by administering 0.1 ml of this emulsion intracutaneously to the root of the tail. After 21 days, the mice were additionally immunized by emulsifying type II collagen in the same manner as before and administering 0.1 ml of the emulsion intraperitoneally so as to induce arthritis.
Animals having arthritis induced in the same manner as described above were used in groups of 7-8. Compound 3 was orally administered, once a day, for 21 days following the additional immunization in a dose of 1, 3 or 10 mg/kg body weight. For comparative purposes, MI43 was similarly administered to another group in a dose of 30 mg/kg body weight. According to the degree of rubor, swelling and rigidity in each of the forelegs and hind legs of the experimental animals, their inhibitory effect on collagen-induced arthritis was evaluated on the following basis by a score ranging from 0 to 4 (with a maximum value of 16).
0: No symptom is observed.
2: Two or more small joints, or a relatively large joint such as that of the wrist or ankle, show rubor or swelling.
4: The total swelling of the hand or foot reaches its peak and, moreover, is accompanied by joint rigidity.

[2] = Levels of Orally Administered Test Compounds in Blood Plasma; type: in vivo, male ICR mice; conditions: oral 25 mg/kg
Experimental: Each of Compound 3 and MI43 was orally administered to fasted male ICR mice (weighing 18-21 g) in a dose of 25 mg/kg. Blood samples were collected from the mice 5 minutes, 30 minutes, 4 hours, 8 hours and 24 hours after administration (3 mice per point for Compound 3 and 5 mice per point for MI43). These blood samples were centrifuged to obtain blood plasma samples. Each of the blood plasma samples was subjected to the following pretreatment and then analyzed by high-performance liquid chromatography (HPLC). 1.8 ml of a saturated aqueous solution of ammonium sulfate and 1.0 ml of methanol were added to and mixed with 0.2 ml of the blood plasma sample. This mixture was shaken with 3.5 ml of ethyl acetate. After this mixture was centrifuged, the ethyl acetate layer was separated. Moreover, the aqueous layer was shaken with 3.5 ml of ethyl acetate, followed by centrifugation. The ethyl acetate layer thus obtained was combined with the previously separated ethyl acetate layer, and this mixture was evaporated to dryness under reduced pressure. The resulting residue was redissolved in 0.2 ml of a 50% aqueous solution of acetonitrile and used as a sample for HPLC.
The analytical conditions for HPLC (using the CCTD system manufactured by Toso Co., Ltd.) were as follows: A YMC A-312 column (ODS 6×150 mm; manufactured by YMC Co., Ltd.) was used as the column. As the mobile phase, a 60:40 mixture of acetonitrile and 0.1% aqueous TFA was used for Compound 3, and a 40:60 mixture of acetonitrile and 0.1% aqueous TFA was used for MI43. The rest compound was eluted at a flow velocity of 1.0 ml/min and detected by UV light at 244 nm.

carrageenin edema = experiment: Effect on Carrageenin Edema; type: in vivo, ICR mice; conditions: for Degree of edema (%): 2 h after carrageenin, mean ± SE, control 47.4 ± 2.8
Experimental: The effect on carrageenin edema was tested by using ICR mice in groups of 6-7. Specifically, Compound 3 was orally administered thereto in a dose of 3 or 30 mg/kg body weight. As a positive control drug, indomethacin was similarly administered in a dose of 20 mg/kg body weight. After 30 minutes, 25 μl of a 1% carrageenin solution was subcutaneously injected into the sole of the right hind leg. Two hours after the administration of carrageenin, the thickness of the sole was measured with digital vernier calipers, and the degree of edema (%) based on the thickness measured before administration was calculated.

5-lipoxygenase = experiment: Effect on 5-lipoxygenase activity; type: biochemical, rats
Experimental: Moreover, its inhibitory effect on 5-lipoxygenase was tested according to the method of Egan et al. (Journal of Biological Chemistry, 260: 11554-11559, 1985). Specifically, an enzyme preparation derived from the basophilic leukemia cells (RBL-1) of rats was used. This enzyme preparation, together with 30 μM Compound 3, was incubated at room temperature for 5 minutes, followed by the addition of linolenic acid. Thereafter, this mixture was incubated at room temperature for 8 minutes. After the reaction was stopped by the addition of a sodium hydroxide solution, its absorbance was measured at 234 nm.

[3] = system: cyclooxygenase (or prostaglandin endoperoxide synthase); experiment: Effect on cyclooxygenase activity; type: biochemical, sheep
Experimental: The inhibitory effect of Compound 3 on cyclooxygenase (or prostaglandin endoperoxide synthase) activity was tested according to the method of Evans et al. (Biochemical Pharmacology, 36: 2035-2037, 1987). Specifically, an enzyme preparation derived from the seminal vesicles of sheep was incubated at 27° C. for 1.5 minutes in the presence of 500 μM arachidonic acid and 300 μM Compound 3. After the reaction was stopped by adding trichloroacetic acid to the reaction mixture, its absorbance was measured at 532 nm.

SMILES: COc1cc(O)c2c(=O)oc(C(C)C(=O)O)cc2c1 (centres unmarked) [Compound 3, 2-(8-hydroxy-6-methoxy-1-oxo-1H-2-benzopyran-3-yl)propionic Acid]
- evidence of toxicity, single administration (Acute toxicity in mice; mouse, in vivo): no animal showed evidences of toxicity
- mortality, single administration (Acute toxicity in mice; oral or intraperitoneal, eight DBA/1J mice): No animal died
- Score after 37 days ([1]; 1 mg/kg/day, control 9.25 ± 1.35): 6.50 ± 1.49
- Score after 37 days ([1]; 3 mg/kg/day, control 9.25 ± 1.35): 5.00 ± 1.61
- Score after 37 days ([1]; 10 mg/kg/day, **p < 0.01 vs control (9.25 ± 1.35)): 3.50 ± 0.63
- concentration at 5 min ([2]; mouse, plasma, 5 min, read-out: Concentration of unchanged Compound 3 in blood plasma, mean): 123 µg/mL
- concentration at 0.5 h ([2]; mouse, plasma, 30 min, read-out: Concentration of unchanged Compound 3 in blood plasma, mean): 131 µg/mL
- concentration at 4 h ([2]; mouse, plasma, 4 hr, read-out: Concentration of unchanged Compound 3 in blood plasma, mean): 63 µg/mL
- concentration at 8 h ([2]; mouse, plasma, 8 hr, read-out: Concentration of unchanged Compound 3 in blood plasma, mean): 38.4 µg/mL
- concentration at 24 h ([2]; mouse, plasma, 24 hr, read-out: Concentration of unchanged Compound 3 in blood plasma, mean): 0.19 µg/mL
- Tmax ([2]; mouse, plasma, unchanged compound, read-out: time of peak / highest plasma level after administration (converted)): 30 min
- plasma concentration after 8 hours (in words) ([2]; 8 hr): remained high even after 8 hours
- plasma concentration after 24 hours (in words) ([2]; 24 hr): dropped to a vary low level after 24 hours
- effect on carrageenin edema (in words) (carrageenin edema; doses of 3 and 30 mg/kg): no inhibitory effect on carrageenin edema
- Degree of edema (%) (carrageenin edema; oral 3 mg/kg): 41.7 ± 3.1%
- Degree of edema (%) (carrageenin edema; oral 30 mg/kg): 46.1 ± 4.2%
- Degree of inhibition (%), 5-Lipoxygenase (5-lipoxygenase; 30 μM Compound 3, n = 2): 21.0%
- inhibitory effect on lipoxygenase (in words) (5-lipoxygenase; 30 μM or 300 μM): no inhibitory effect on cyclooxygenase or lipoxygenase
- inhibitory effect on cyclooxygenase (in words) ([3]; 30 μM or 300 μM): no inhibitory effect on cyclooxygenase or lipoxygenase
- Degree of inhibition (%), Cyclooxygenase ([3]; 300 μM Compound 3, 500 μM arachidonic acid, n = 2): -4.0%
